Earlier results on 4 molecules are cited in patent US10799550B2, “Oral compositions comprising beta-escin for reducing acetaldehyde toxicity” (ESCILAB SP. Z O.O., priority 2016, dated 2020).

The structures appear in SMILES notation.

In the series the test system is ethanol absorption. Particulars: rats.

Regarding `C/C=C(\C)C(=O)O[C@H]1[C@H](OC(C)=O)[C@]2(CO)[C@H](O)C[C@]3(C)C(=CC[C@@H]4[C@@]5(C)CC[C@H](O[C@@H]6O[C@H](C(=O)O)[C@@H](O[C@@H]7O[C@H](CO)[C@@H](O)[C@H](O)[C@H]7O)[C@H](O)[C@H]6O[C@@H]6OC[C@@H](O)[C@H](O)[C@H]6O)[C@](C)(CO)[C@@H]5CC[C@]43C)[C@@H]2CC1(C)C` [escin IIa], the “effect on ethanol absorption” value is “inhibitory effect”. As for `C/C=C(/C)C(=O)O[C@H]1[C@H](OC(C)=O)[C@]2(CO)[C@H](O)C[C@]3(C)C(=CC[C@@H]4[C@@]5(C)CC[C@H](O[C@@H]6O[C@H](C(=O)O)[C@@H](O[C@@H]7O[C@H](CO)[C@@H](O)[C@H](O)[C@H]7O)[C@H](O)[C@H]6O[C@@H]6OC[C@@H](O)[C@H](O)[C@H]6O)[C@](C)(CO)[C@@H]5CC[C@]43C)[C@@H]2CC1(C)C` [escin IIb], the “effect on ethanol absorption” value is reported as “inhibitory effect”.

As for `C/C=C(\C)C(=O)O[C@H]1[C@H](OC(C)=O)[C@]2(CO)[C@H](O)C[C@]3(C)C(=CC[C@@H]4[C@@]5(C)CC[C@H](O[C@@H]6O[C@H](C(=O)O)[C@@H](O[C@@H]7O[C@H](CO)[C@@H](O)[C@H](O)[C@H]7O)[C@H](O)[C@H]6O[C@@H]6O[C@H](CO)[C@@H](O)[C@H](O)[C@H]6O)[C@](C)(CO)[C@@H]5CC[C@]43C)[C@@H]2CC1(C)C` [escin Ia], the “effect on ethanol absorption” value is on record as “inhibitory effect”.

Take `C/C=C(/C)C(=O)O[C@H]1[C@H](OC(C)=O)[C@]2(CO)[C@H](O)C[C@]3(C)C(=CC[C@@H]4[C@@]5(C)CC[C@H](O[C@@H]6O[C@H](C(=O)O)[C@@H](O[C@@H]7O[C@H](CO)[C@@H](O)[C@H](O)[C@H]7O)[C@H](O)[C@H]6O[C@@H]6O[C@H](CO)[C@@H](O)[C@H](O)[C@H]6O)[C@](C)(CO)[C@@H]5CC[C@]43C)[C@@H]2CC1(C)C` [escin Ib]: the “effect on ethanol absorption” value is “inhibitory effect”.
